Laboratory results reported in patent US20030008807A1, “Novel signaling pathway for the production of inflammatory pain and neuropathy” (The Regents of the University of California, priority 2001, published 2003).

Experiments:
[1] = system: mechanical nociceptive threshold; conditions: injected intradermally (Khasar et al., 1999b); cited from earlier work
[2] = system: mechanical nociceptive threshold; conditions: dose-response studies (Khasar et al., 1999b); cited from earlier work
ERK1/2 = test: Epinephrine-stimulated ERK1/2 phosphorylation in cultured rat DRG neurons (Western analysis); type: cell-based
Method: Trypsin was inactivated by adding 100 μg/ml soybean trypsin inhibitor and 2.5 mg/ml MgSO4. The cells were centrifuged at 300×g for 5 min and resuspended culture media containing minimal essential medium (MEM) supplemented with 10% heat-inactivated fetal calf serum, 1×MEM vitamins, and 1000 U/ml each of penicillin and streptomycin. The culture was enriched for neurons by preplating on 100 mm culture dishes pretreated with 0.1 mg/ml poly-DL-ornithine in 15 mM sodium borate buffer. After culture for 15-20 hr, the loosely attached neuronal cells were collected and plated for 3 hr on six-well plates coated with 0.1 mg/ml poly-DL-ornithine and 1 mg/ml laminin.
After drug treatment, cells from neuron-enriched DRG cultures were collected and centrifuged at 300×g for 5 min at 4° C. […] Blots were incubated with anti-phospho-p42/44 MAP kinase antibody (diluted 1:500 in blocking buffer) overnight at 4° C. Blots were rinsed three times in PBS-T and incubated in blocking buffer containing HRP-conjugated goat anti-rabbit IgG (diluted 1:1000; Boehringer Mannheim, Indianapolis, Ind.) for 1 hr at 27° C. Immunoreactive bands were visualized by enhanced chemiluminescence (Amersham Pharmacia Biotech, Piscataway, N.J.). The membranes were then stripped of antibodies by incubation in 200 mM NaOH for 20 min at 27° C. […] After three washes in PBS-T, blots were incubated with HRP-conjugated goat anti-rabbit IgG (diluted 1:1000; Boehringer Mannheim) for 1 hr at 27° C., and immunoreactive bands were visualized by enhanced chemiluminescence and autoradiography. […] Data were normalized by dividing values obtained for phospho-ERK1 and phospho-ERK2 immunoreactivity by the value obtained for total ERK1 immunoreactivity for each sample.

[3] = system: mechanical nociceptive threshold; test: Epinephrine-induced mechanical hyperalgesia, Randall-Selitto paw-withdrawal test (Example 1); conditions: rat, in vivo
From the text: The nociceptive flexion reflex (Randall-Selitto paw-withdrawal test) was quantified with a Basile Analge-symeter (Stoelting, Chicago, Ill.), which applies a linearly increasing mechanical force to the dorsum of the rat's hindpaw. The mechanical nociceptive threshold was defined as the force in grams at which the rat withdrew its paw. […] They were allowed to crawl into individual cylindrical Perspex blocks and were lightly restrained there by closing both ends of the cylinder. […] The rats were allowed to acclimatize to the restrainer for 5-10 min, after which the hindpaws were exposed to the test stimulus. Three readings were taken at 5 min intervals, and their mean was considered the baseline threshold. After each drug administration, mechanical paw-withdrawal thresholds were determined again as the mean of three readings taken 20, 25, and 30 min after injection.
Inhibitors were diluted with distilled water before intra-dermal injections into the paw using a 10 μl microsyringe (Hamilton, Reno, Nev.). Injections of peptides (1 μg/2.5 μl) were always preceded by injection of distilled water (2.5 μl) to produce hypo-osmotic shock. […] Paw-withdrawal thresholds were measured again 10, 15, and 20 min after injecting the test agent. The mean of the paw-withdrawal thresholds obtained at these three times was then taken as the mechanical nociceptive threshold at the dose of the test agent used. The effect of each dose a test agent was calculated as the percentage change from baseline.

[4] = system: mechanical nociceptive threshold; conditions: epinephrine 100 ng, 3.82 and 4.54 N/mm^2
[5] = system: mechanical nociceptive threshold; test: Epinephrine-induced hyperalgesia in gonad-intact and gonadectomized male and female rats (Example 2); conditions: for absolute decrease in threshold after epinephrine: n=18
Method: The nociceptive flexion reflex was quantified using the Randall-Selitto paw pressure device (Analgesymeter, Stoetling, Chicago, Ill., USA), which applies a linearly increasing mechanical force to the dorsum of the rat's hind paw. The mechanical nociceptive threshold was defined as the force in grams at which the rat withdrew its paw. […] Baseline paw-withdrawal threshold was defined as the mean of six readings before test agents were injected. […] Each group of rats was treated with only one agonist and/or antagonist injected peripherally by the intradermal route. […] All behavioural testing was done between 10.00 and 16.00 h. […] The protein kinase inhibitor was separated from the distilled water by drawing up a small air bubble (<1 μL) into the syringe after drawing up the protein kinase inhibitor but before drawing up the distilled water.
A stock solution of PGE2 (4 mg/mL) was made by dissolving it in 10% ethanol in normal saline; further dilution to 100 ng was made by addition of saline. Final concentration of ethanol was <10%. […] Stock solutions (1 μg/μL) of inhibitors were stored at −20° C. […] Inhibitors were injected at a concentration of 1 μg/2.5 μL.

In the case of `CNC[C@H](O)c1ccc(O)c(O)c1` [epinephrine], the “ED50 for lowering the nociceptive threshold” value [1] is given as ~20 ng, the “dose producing maximal hyperalgesia” value [2] is given as 100 ng and the “ERK1/2 phosphorylation (representative Western blot)” value (ERK1/2) is given as “stimulation”. For the same compound, the “concentration at which effect on ERK phosphorylation appeared maximal” value (ERK1/2) was 1 µM, the “increase of phospho-ERK immunoreactivity over basal level” value (ERK1/2) was ~1.7 fold and the “time after which ERK phosphorylation returned to basal levels” value (ERK1/2) was 60 min. For the same compound, the “time at which epinephrine-evoked ERK phosphorylation was greatest” value (ERK1/2) was 5 min, the Emax (ERK1/2; Rattus norvegicus, DRG neuron, 5 min, read-out: maximal response relative to response to NGF) was 30 to 50% and the “decrease in mechanical nociceptive thresholds” value [3] was ~35%. The “response to VFH stimulation, wild-type vs PKCε mutant” value ([4]; female mice) was “similar”, the “epinephrine-induced change in nociceptive response in PKCε-null vs wild-type” value ([4]; male mice) was “significantly less” and the “change in mechanical nociceptive threshold over dose range” value ([5]; epinephrine 1-1000 ng intradermal, normal male and female rats) was “dose-dependent decrease”. The “decrease in threshold after epinephrine, gonadectomized vs gonad-intact” value ([5]; female rats, epinephrine 100 ng) was “greater”, the “absolute decrease in threshold after epinephrine” value ([5]; female rats) was 72.7 ± 0.9 g and the “decrease in paw-withdrawal threshold produced by epinephrine, gonadectomized vs gonad-intact” value ([5]; male rats, epinephrine 100 ng) was “no significant difference”. The “absolute decrease in threshold after epinephrine” value ([5]; male rats) was 63.7 ± 0.9 g.
